“And” between values parts separate entries of the source, which are not always exact repeats. Equal entries are not always repeated. Where two headings read alike, the source gives them in different places. Marks after values point to notes of the source that are not given here.
Tests used:
Solubility in water = assay type: physicochemical
[1] = Plasma pharmacokinetics after oral administration in mice
Protocol: To determine the pharmacokinetic characters of 13a-(S)-deoxytylophorinine and its salts, the studies about plasma pharmacokinetics and the character of distribution in brain were pursued.
(§1) Male ICR mice. Body weight 18˜22 g.
(+)-13a-(S)-deoxytylophorinine Tartrate, (+)-13a-(S)-deoxytylophorinine Maleate, (+)-13a-(S)-deoxytylophorinine Citrate. All were dissolved in distilled water as 0.6 mg/ml solution before experiment progressed.
72 mice were divided to 3 groups with 24 animals per group, fasting for 16 h and drinking water freely. […] Plasma was isolated by centrifugalization. After the salts were administered orally, the brain tissues of mice were collected at 5 min, 15 min, 2 h time points. 25% tissue homogenate was prepared with normal saline addition. 200 μL of homogenate and plasma were added isovolumic MeCN to precipitate protein. 5 μL of clear supernatant was analyzed by LC/MS/MS.
(+)-13a-(S)-deoxytylophorinine was dissolved in DMSO and then diluted with MeOH with concentration 10, 50, 100, 500, 1000 and 2500 ng/ml respectively. 10 μl of standard solutions of (+)-13a-(S)-deoxytylophorinine with different concentration above were added to 200 μl of blank plasma sequently to adjust the concentration to 0.5, 2.5, 5, 25, 50, 125 ng/ml respectively. MeCN was added to the solution to precipitate protein, and 5 μl of result clear supernatant was analyzed with LC/MS/MS. Linear regression was ran with the peak area of (+)-13a-(S)-deoxytylophorinine as ordinate and the concentrations as abscissa.

H22 tumor-bearing mice = conditions: intragastric once daily
Text: To determine the pharmacodynamic characters of 13a-(S)-deoxytylophorinine and its salts, the impact of these compounds to the tumor growth in H22 tumor-bearing mice was surveyed.
Male Kunming mice were obtained from the Laboratory Animal Center, Academy of Military Medical Science. Body weight 18˜22 g. 6 animals per group, totally 10 groups, 60 animals.
(+)-13a-(S)-deoxytylophorinine, (+)-13a-(S)-deoxytylophorinine Tartrate, (+)-13a-(S)-deoxytylophorinine Maleate, (+)-13a-(S)-deoxytylophorinine Citrate, Cytoxane (CTX) as positive control.
(+)-13a-(S)-deoxytylophorinine was administered at high dose (5 mg/kg) and low dose (2.5 mg/kg). Three (+)-13a-(S)-deoxytylophorinine salts were administered at high dose and low dose as equal moles with their prototype (Tartrate: 7.05 mg/kg, 3.53 mg/kg; Malate: 6.60 mg/kg, 3.30 mg/kg; Citrate: 7.90 mg/kg, 3.95 mg/kg).
Animals were reared in SPF grade circumstance to be observed for 24 h. The tumor cells liquid which resuscitated in abdominal cavity of KM mice was diluted with aseptic normal saline at 1:3 ratio. The resulting liquid was inoculated subcutaneously at forelimb with 0.2 mL every animal. After the injection over, the animals were divided to […] with 6 animals per group.
Four experimental samples were intragastric administered once daily 24 h after inoculation. The positive control CTX was intraperitoneal injected once daily. The animal body weight was recorded every day.

[2] = Drug distribution in brain tissue after oral administration in mice; assay type: in vivo, ICR mice; conditions: for Brain contents of (+)-13a-(S)-deoxytylophorinine (ng/ml), Mean ± SD / Brain contents of (+)-13a-(S)-deoxytylophorinine (ng/ml), individual animals 1-3: 6 mg/kg oral
Protocol: as §1
Plasma was isolated by centrifugalization. […] 25% tissue homogenate was prepared with normal saline addition.
The drug concentration-time data in brain tissue after administered orally of (+)-13a-(S)-deoxytylophorinine tartrate, maleate and citrate were represented in Table 8˜10 and FIG. 6˜8. […] (+)-13a-(S)-deoxytylophorinine could be detected in 5 min. The peak concentration was reached after 15 min, and the compound still can be detected after 2 h after administration.

[3] = 6 mg/kg oral, mice, Time (min) 3
[4] = 6 mg/kg oral, mice, Time (min) 6
[5] = male, ICR, mouse, plasma, po, 6 mg/kg
[6] = high dose × 7 d, equal moles: prototype 5.0, tartrate 7.05, maleate 6.60, citrate 7.90 mg/kg
[7] = low dose × 7 d, equal moles: prototype 2.5, tartrate 3.53, maleate 3.30, citrate 3.95 mg/kg

COc1ccc2c3c(c4cc(OC)c(OC)cc4c2c1)CN1CCC[C@H]1C3.O=C(O)C(O)C(O)C(=O)O [Tartrate, (+)-13a-(S)-deoxytylophorinine Tartrate]
Solubility in water (words) (Solubility in water): soluble in water
solubility (Solubility in water; water): 39 mg/mL
Peak concentration in blood ([1]; 6 mg/kg oral, mice): 34.2 ± 3.1 ng/mL
Time of peak concentration in blood ([1]; 6 mg/kg oral, mice): 15 min
t½z ([1]; 6 mg/kg oral, mice, plasma, non-compartment model): 0.88 h
Blood concentration of (+)-13a-(S)-deoxytylophorinine (ng/ml), individual animals 1-3 ([1]; 6 mg/kg oral, mice, Time (min) 0.08): 18.4 ng/mL and 11.7 ng/mL and 42.0 ng/mL
Blood concentration of (+)-13a-(S)-deoxytylophorinine (ng/ml), individual animals 1-3 ([1]; 6 mg/kg oral, mice, Time (min) 0.25): 30.6 ng/mL and 36.1 ng/mL and 35.7 ng/mL
Blood concentration of (+)-13a-(S)-deoxytylophorinine (ng/ml), individual animals 1-3 ([1]; 6 mg/kg oral, mice, Time (min) 0.5): 16.5 ng/mL and 9.0 ng/mL and 7.8 ng/mL
Blood concentration of (+)-13a-(S)-deoxytylophorinine (ng/ml), individual animals 1-3 ([1]; 6 mg/kg oral, mice, Time (min) 1): 6.2 ng/mL and 10.0 ng/mL
Blood concentration of (+)-13a-(S)-deoxytylophorinine (ng/ml), individual animals 1-3 ([1]; 6 mg/kg oral, mice, Time (min) 2): 2.5 ng/mL and 12.4 ng/mL and 8.7 ng/mL
Blood concentration of (+)-13a-(S)-deoxytylophorinine (ng/ml), Mean ± SD [1, 3]: 4.5 ± 1.2 ng/mL
Blood concentration of (+)-13a-(S)-deoxytylophorinine (ng/ml), individual animals 1-3 [1, 3]: 3.0 ng/mL and 5.0 ng/mL and 5.3 ng/mL
Blood concentration of (+)-13a-(S)-deoxytylophorinine (ng/ml), individual animals 1-3 ([1]; 6 mg/kg oral, mice, Time (min) 4): 3.3 ng/mL and 4.2 ng/mL and 1.1 ng/mL
Blood concentration of (+)-13a-(S)-deoxytylophorinine (ng/ml), Mean ± SD [1, 4]: 0.4 ± 0.4 ng/mL
Blood concentration of (+)-13a-(S)-deoxytylophorinine (ng/ml), individual animals 1-3 [1, 4]: 0.0 ng/mL and 0.2 ng/mL and 0.8 ng/mL
concentration at 5 min ([1]; male, ICR, mouse, plasma, oral, 6 mg/kg, Blood concentration of (+)-13a-(S)-deoxytylophorinine (ng/ml), Mean ± SD, 6 mg/kg oral, mice, Time (min) 0.08): 24 ± 15.9 ng/mL
concentration at 15 min ([1]; male, ICR, mouse, plasma, oral, 6 mg/kg, Blood concentration of (+)-13a-(S)-deoxytylophorinine (ng/ml), Mean ± SD, 6 mg/kg oral, mice, Time (min) 0.25): 34.2 ± 3.1 ng/mL
concentration at 0.5 h ([1]; male, ICR, mouse, plasma, oral, 6 mg/kg, Blood concentration of (+)-13a-(S)-deoxytylophorinine (ng/ml), Mean ± SD, 6 mg/kg oral, mice, Time (min) 0.5): 11.1 ± 4.7 ng/mL
concentration at 1 h ([1]; male, ICR, mouse, plasma, oral, 6 mg/kg, Blood concentration of (+)-13a-(S)-deoxytylophorinine (ng/ml), Mean ± SD, 6 mg/kg oral, mice, Time (min) 1): 8.1 ± 2.7 ng/mL
concentration at 2 h ([1]; male, ICR, mouse, plasma, oral, 6 mg/kg, Blood concentration of (+)-13a-(S)-deoxytylophorinine (ng/ml), Mean ± SD, 6 mg/kg oral, mice, Time (min) 2): 7.9 ± 5 ng/mL
concentration at 4 h ([1]; male, ICR, mouse, plasma, oral, 6 mg/kg, Blood concentration of (+)-13a-(S)-deoxytylophorinine (ng/ml), Mean ± SD, 6 mg/kg oral, mice, Time (min) 4): 2.8 ± 1.6 ng/mL
AUC(0-inf) [1, 5]: 37.9 ng·h/mL
AUC(0-t) [1, 5]: 37.4 ng·h/mL
Cmax [1, 5]: 34.2 ng/mL
MRT inf [1, 5]: 1.63 h
MRT last [1, 5]: 1.57 h
Tmax [1, 5]: 0.25 h
Animal No. (Initial/Final) (H22 tumor-bearing mice; [6]): 6/6
Body Weight(g) Final (H22 tumor-bearing mice; [6]): 13.55 ± 1.87 g
Body Weight(g) Initial (H22 tumor-bearing mice; [6]): 22.00 ± 1.55 g⁻¹
Inhibition (%) (H22 tumor-bearing mice; [6]): 80.35** %
Tumor Weight (g, mean ± SD) (H22 tumor-bearing mice; [6]): 0.23 ± 0.15 g
Animal No. (Initial/Final) (H22 tumor-bearing mice; [7]): 6/6
Body Weight(g) Final (H22 tumor-bearing mice; [7]): 19.76 ± 2.34 g
Body Weight(g) Initial (H22 tumor-bearing mice; [7]): 21.50 ± 0.84 g⁻¹
Inhibition (%) (H22 tumor-bearing mice; [7]): 31.88%
Tumor Weight (g, mean ± SD) (H22 tumor-bearing mice; [7]): 0.78 ± 0.48 g
Brain contents of (+)-13a-(S)-deoxytylophorinine (ng/ml), Mean ± SD ([2]; Time (min) 5): 48.0 ± 21.6 ng/mL
Brain contents of (+)-13a-(S)-deoxytylophorinine (ng/ml), individual animals 1-3 ([2]; Time (min) 5): 32.4 ng/mL and 38.8 ng/mL and 72.7 ng/mL
Brain contents of (+)-13a-(S)-deoxytylophorinine (ng/ml), Mean ± SD ([2]; Time (min) 15): 262.9 ± 11.9 ng/mL
Brain contents of (+)-13a-(S)-deoxytylophorinine (ng/ml), individual animals 1-3 ([2]; Time (min) 15): 249.3 ng/mL and 271.0 ng/mL and 268.5 ng/mL
Brain contents of (+)-13a-(S)-deoxytylophorinine (ng/ml), Mean ± SD ([2]; Time (min) 120): 45.7 ± 33.0 ng/mL
Brain contents of (+)-13a-(S)-deoxytylophorinine (ng/ml), individual animals 1-3 ([2]; Time (min) 120): 24.7 ng/mL and 28.7 ng/mL and 83.7 ng/mL
Drug contents in brain compared with prototype ([2]; oral, 3 time points): higher than their prototype

From US20120190703A1, “SALTS OF 13A-(S)DESOXYTYLOPHORININE, PREPARATION METHODS AND PHARMACEUTICAL COMPOSITIONS AND USES THEREOF” (priority 2009, published 2012)
